Source: patent publication US20100305204A1, “COMPOSITION USEFUL FOR THE PREVENTION OF ADVERSE EFFECT DUE TO THE USE OF PPAR-GAMMA AGONISTS” (SIGMA-TAU INDUSTRIE FARMACEUTICHE RIUNITE S.P.A., priority 2007, published 2010)
Values joined by “and” are separate entries in the source; they are usually repeats but may differ in a detail not shown here. Equal values may be shown once.

Columns and labels:
IGF1 = experiment: Serum levels of IGF1 in rosiglitazone-treated patients affected by osteoporosis
osteocalcine = experiment: Serum levels of osteocalcine in rosiglitazone-treated patients affected by osteoporosis
[1] = Body weight (BW) of the patients
[2] = T1 versus T0, a month of wash-out, 6 patients
[3] = after 1-month rosiglitazone wash-out (T1), patients 1-6 individually and mean
[4] = after treatment with rosiglitazone 8 mg/day orally for 12 months (T0), patients 1-6 individually and mean

## CN(CCOc1ccc(CC2SC(=O)NC2=O)cc1)c1ccccn1 (stereo not drawn) [rosiglitazone]
IGF1; [2]
  Change of serum IGF1 after wash-out: lightly incremented even if not significantly
IGF1; [3]
  Serum level of IGF1, T1: 310000 pg/mL and 375000 pg/mL and 300000 pg/mL and 380000 pg/mL and 280000 pg/mL and 265000 pg/mL
IGF1; [4]
  Serum level of IGF1, T0: 300 ng/ml and 235 ng/ml and 260 ng/ml (2×) and 330 ng/ml and 270 ng/ml
osteocalcine; [2]
  Change of serum osteocalcine after wash-out: lightly incremented even if not significantly
osteocalcine; [3]
  Serum level of osteocalcine, T1: 0.0028 pg/mL and 0.0029 pg/mL and 0.003 pg/mL and 0.0027 pg/mL and 0.0026 pg/mL
osteocalcine; [4]
  Serum level of osteocalcine, T0: 0.0027 pg/mL and 0.003 pg/mL and 0.0031 pg/mL and 0.0023 pg/mL and 0.0022 pg/mL and 0.0026 pg/mL
[1]; [2]
  Change of body weight (BW) after wash-out: didn't demonstrate variations
[1]; [3]
  BW Body weight, T1: 98.9 and 102 and 109 and 94.6 and 96.8 and 97
[1]; [4]
  BW Body weight, T0: 99 and 102.5 and 108.9 and 94.5 and 97.3 and 97.2
[2]
  Change of Total Body Water after wash-out: didn't demonstrate variations
[3]
  TBW Total Body Water, T1: 50 and 50.2 and 53.5 and 48 and 50.8 and 49.9
[4]
  TBW Total Body Water, T0: 50.1 and 50.3 and 53.6 and 48 and 50.9 and 49.8
